Source: patent EP1211505A1, “METHOD FOR MEASURING SUBSTANCE AND M[…] TO BE USED IN THE METHOD” (Asahi Kasei Kabushiki Kaisha, priority 1999, dated 2001)
Read-outs that look alike come from different tables or passages of the source.

Experiments:
[1] = Solubility of BCIP / BCI2; format: physicochemical; details: buffer 1: 1.01 M 2-ethylaminoethanol-HCl/0.505 mM MgCl2 (pH 9.87)
Procedure: The solubility of BCIP in the buffer 1 is about 70 mM. In order to obtain the optimum concentration of BCIP, first an ALP measurement reagent was prepared by dissolving BCIP in the buffer 1 to give a final concentration of 70 mM, and then the prepared reagent was diluted with the buffer 1 step by step to prepare ALP measurement reagents having BCIP final concentrations of 70 mM, 35 mM, 15 mM, 10 mM, 6.25 mM, 5 mM, 2.5 mM and 1.25 mm, respectively.

[2] = in the form of a sodium salt, cited from earlier work

O=P(O)(O)Oc1c[nH]c2ccc(Br)c(Cl)c12 [BCIP, 5-bromo-4-chloro-3-indoxyl phosphate]
solubility of BCIP in the buffer 1 [1]: about 70 mM
solubility of BCIP in pure water ([2]; same value expressed in mM): 54 mM
solubility of BCIP in pure water [2]: 20 mg/mL
